# Assay results from US6846931B2, “Organic acid salt of amlodipine” (CJ Corp, priority 2002, dated 2005).
# Legend:
# [1] = Test for hygroscopicity (water content at different humidity levels); assay type: physicochemical; conditions: for water content: 25° C.; for change of water content: one week under various humidity conditions
# [2] = Chemical stability in solid state, accelerated test at 60° C. (HPLC content); assay type: physicochemical; conditions: for changes in the content: accelerated test at 60° C.; for content (HPLC): solid state, 60° C.
# Text: 1. HPLC Analysis Conditions:
# Detector: UV Absorbance (at 237 nm)
# Column: Octadesyl silica gel C18 (4.6 mm×150mm, 5 μm)
# Mobile Phase: Potassium dihydrogenphosphate monobasic (0.03M): methanol=4:6 (v/v)
# [3] = Chemical stability in aqueous state, 25° C., 4 weeks, complete darkness (HPLC); assay type: physicochemical; conditions: distilled water
# Experimental: The resulting aqueous solutions were stored at 25° C. for 4 weeks in complete darkness, after which a measurement was made of the contents of the salts with resort to HPLC under the same conditions as in the solid state.
# [4] = Test for light stability, aqueous solution exposed to daylight (HPLC content); assay type: physicochemical; conditions: for color change: 4 weeks at 25° C., daylight; for content (HPLC): stored for 4 weeks at 25° C. daylight
# Experimental: The resulting aqueous solutions were stored at 25° C. for 4 weeks while being exposed to daylight. A measurement was made of the contents of the salts with resort to HPLC under the same conditions as in the chemical stability test.
# [5] = physchem; conditions: 37 °C, pH 5, aqueous buffer
Compound,"water content ([1]; 25% RH, 1 week)","water content ([1]; 60% RH, 1 week)","water content ([1]; 75% RH, 1 week)","water content ([1]; 90% RH, 1 week)",water content ([1]; Initial),change of water content [1],changes in the content [2],content (HPLC) ([2]; 1 week),content (HPLC) ([2]; initial),decomposition products and content change [3],color change [4],content (HPLC) [4],content (HPLC) ([2]; 2 weeks),solubility [5]
"CCOC(=O)C1=C(COCCN)NC(C)=C(C(=O)OC)[C@@H]1c1ccccc1Cl [(S)-(−)-PyroGlu, Amlodipine (S)-(−)-Pyroglutamate]",0.26%,0.3%,0.31%,0.32%,0.3%,kept its initial water content without great fluctuation,virtually no changes in the content,99.6%,99.6%,neither decomposition products nor content change is found,no color change,98.5%,,
"CCOC(=O)C1=C(COCCN)NC(C)=C(C(=O)OC)C1c1ccccc1Cl (stereo not drawn) [Besylate, Amlodipine Besylate]",0.10%,0.09%,0.15%,0.17%,0.14%,kept its initial water content without great fluctuation,virtually no changes in the content,99.6%,99.6%,neither decomposition products nor content change is found,turned yellow from white,82.5%,99.4%,3150 µg/mL
"CCOC(=O)C1=C(COCCN)NC(C)=C(C(=O)OC)C1c1ccccc1Cl.Cc1ccc(S(=O)(=O)O)cc1 (stereo not drawn) [Tosylate, Amlodipine para-Toluenesulfonate]",,,,,,,,,,,,72.0%,,
